Test results published in US20240423915A1, “LIPIDS FOR USE IN LIPID NANOPARTICLES” (Acuitas Therapeutics, Inc., priority 2023, published 2024).

Tested on: human IgG in mouse serum
Assay: Immunoglobulin G (IgG) mRNA in vivo evaluation using lipid nanoparticle compositions (human IgG ELISA of mouse serum)
Set-up: species or system CD-1/ICR mice
Settings: LNP with cationic lipid/DSPC/cholesterol/PEG lipid, tail vein injection, mouse serum 24 hours after administration; for Serum IgG (μg/mL) @ 0.3 mg/kg: IgG mRNA 0.3 mg mRNA/kg; for Serum IgG (μg/mL) @ 1.0 mg/kg: IgG mRNA 1.0 mg mRNA/kg
Method: A lipid of Formula (I), DSPC, cholesterol and PEG-lipid of Formula (II) are solubilized in ethanol at a molar ratio of 50:10:38.5:1.5 or 47.5:10:40.7:1.8. Lipid nanoparticles (LNP) are prepared at a total lipid to mRNA weight ratio of approximately 10:1 to 40:1. Briefly, the mRNA is diluted to 0.2 mg/mL in 10 to 50 mM citrate buffer, pH 4 to 6 or 10 to 25 mM acetate buffer, pH 4 to 6. Syringe pumps are used to mix the ethanolic lipid solution with the mRNA aqueous solution at a ratio of about 1:5 to 1:3 (vol/vol) with total flow rates above 15 mL/min. The ethanol is then removed, and the external buffer replaced with PBS by dialysis. Finally, the lipid nanoparticles are filtered through a 0.2 μm pore sterile filter.
Studies are performed in 6-8-week-old CD-1/ICR mice (Charles River or Inotiv) according to guidelines established by an institutional animal care committee (ACC) and the Canadian Council on Animal Care (CCAC). Varying doses of mRNA-lipid nanoparticle are systemically administered by tail vein injection and animals euthanized at a specific time point (e.g., 24 hours) post-administration. The whole blood is collected, and the serum subsequentially separated by centrifuging the tubes of the whole blood at 2000×g for 10 minutes at 4° C. and stored at −80° C. until use for analysis.
For immunoglobulin G (IgG) ELISA (Life Diagnostics Human IgG ELISA kit), the serum samples are diluted at 100 to 20,000 folds with 1× diluent solution. 100 μL of diluted serum is dispensed into anti-human IgG coated 96-well plate in duplicate alongside human IgG standards and incubated in a plate shaker at 150 rpm at 25° C. for 45 minutes. The wells are washed 5 times with 1× wash solution using a plate washer (400 μL/well). 100 μL of HRP conjugate is added into each well and incubated in a plate shaker at the same condition above. The wells are washed 5 times again with 1× wash solution using a plate washer (400 μL/well). 100 μL of TMB reagent is added into each well and incubated in a plate shaker at the same condition above. The reaction is stopped by adding 100 μL of Stop solution to each well. The absorbance is read at 450 nm (A450) with a microplate reader. The amount of human IgG in mouse serum is determined by plotting A450 values for the assay standard against human IgG concentration.
Representative compounds of the disclosure shown in Table 2 were formulated using the following molar ratio: 50% cationic lipid/10% distearoylphosphatidylcholine (DSPC)/38.5% Cholesterol/1.5% PEG lipid 2-[2-(ω-methoxy(polyethyleneglycol2000)ethoxy]-N,N-ditetradecylacetamide) or 47.5% cationic lipid/10% DSPC/40.7% Cholesterol/1.8% PEG lipid. Relative activity was determined by measuring the amount of human IgG in mouse serum as described in Example 1. The activity was compared at a dose of 1.0 or 0.3 mg mRNA/kg and expressed as ng luciferase/g liver measured 4 hours after administration, as described in Example 1 or as μg IgG/mL serum measured 24 hours after administration, as described in Example 2. Compound numbers in Table 2 refer to the compound numbers of Table 1.

SMILES	Serum IgG (μg/mL) @ 0.3 mg/kg	Serum IgG (μg/mL) @ 1.0 mg/kg
CCCCCCCCCCOC(=O)OCCCCCCCCN(CCCCCO)CCCCCCCC(=O)N(CCCCCCCCCC)CCCCCCCCCC [Compound I-1, decyl (8-((8-(didecylamino)-8-oxooctyl)(5-hydroxypentyl)amino)octyl) carbonate]	15.6 ± 5.1 µg/mL	121.5 ± 33.1 µg/mL
CCCCCCCCCCOC(=O)OCCCCCCCCN(C)CCCCCCCC(=O)N(CCCCCCCCCC)CCCCCCCCCC [Compound I-2, decyl (8-((8-(didecylamino)-8-oxooctyl)(methyl)amino)octyl) carbonate]	22.3 ± 7.8 µg/mL	134.9 ± 26.6 µg/mL
CCCCCCCCCCN(CCCCCCCCCC)C(=O)CCCCCCCN(CCCCCO)CCCCCCCCOC(=O)OC(CCCCCCC)CCCCCCC [Compound I-3, 8-((8-(didecylamino)-8-oxooctyl)(5-hydroxypentyl)amino)octylpentadecan-8-yl carbonate]	30.1 ± 2.1 µg/mL	173.3 ± 9.3 µg/mL
CCCCCCCCCCN(CCCCCCCCCC)C(=O)CCCCCCCN(C)CCCCCCCCOC(=O)OC(CCCCCCC)CCCCCCC [Compound I-4, 8-((8-(didecylamino)-8-oxooctyl)(methyl)amino)octylpentadecan-8-yl carbonate]	8.5 ± 2.0 µg/mL	73.6 ± 15.6 µg/mL
CCCCCCCCCCN(CCCCCCCCCC)C(=O)CCCCCCCCC(CCCCCCCCC(=O)OCC(CCCC)CCCCCC)N(CCCCCCCCCC)C(=O)CCN(C)C (stereo not shown) [Compound I-8, 2-butyloctyl 10-(N-decyl-3-(dimethylamino)propanamido)-19-(didecylamino)-19-oxononadecanoate]	21.7 ± 4.3 µg/mL	232.4 ± 42.5 µg/mL
CCCCCCCCCCN(CCCCCCCCCC)C(=O)CCCCCCCN(CCCCCO)CCCCCCCCOC(=O)OCC(CC)CCCC (stereo not shown) [Compound I-11, 8-((8-(didecylamino)-8-oxooctyl)(5-hydroxypentyl)amino)octyl (2-ethylhexyl) carbonate]	39.6 ± 6.3 µg/mL	
CCCCCCCCCCN(CCCCCCCCCC)C(=O)CCCCCCCN(CCCCCO)CCCCCCCCOC(=O)OCC(CCCC)CCCCCC (stereo not shown) [Compound I-12, 2-butyloctyl (8-((8-(didecylamino)-8-oxooctyl)(5-hydroxypentyl)amino)octyl) carbonate]	19.7 ± 6.8 µg/mL	
CCCCCCCCCCC(CCCCCCCCCC)OC(=O)OCCCCCCCCCN(CCCCCO)CCCCCCCC(=O)N(CCCCCCCCCC)CCCCCCCCCC [Compound I-13, 9-((8-(didecylamino)-8-oxooctyl)(5-hydroxypentyl)amino)nonyl henicosan-11-yl carbonate]	18.2 ± 3.3 µg/mL	143.2 ± 23.9 µg/mL
CCCCCCCCCCN(CCCCCCCCCC)C(=O)CCCCCCCN(CCCCCO)CCCCCCCCCOC(=O)OC(CCCC)CCCC [Compound I-14, 9-((8-(didecylamino)-8-oxooctyl)(5-hydroxypentyl)amino)nonyl nonan-5-yl carbonate]	37.0 ± 18.5 µg/mL	280.8 ± 86.6 µg/mL
CCCCCCCCCCC(CCCCCCCCCC)OC(=O)OCCCCCN(CCCCCO)CCCCCCCC(=O)N(CCCCCCCCCC)CCCCCCCCCC [Compound I-15, 5-((8-(didecylamino)-8-oxooctyl)(5-hydroxypentyl)amino)pentyl henicosan-11-yl carbonate]	7.8 ± 4.0 µg/mL	
CCCCCCCCCCN(CCCCCCCCCC)C(=O)CCCCCCCN(CCCCCO)CCCCCOC(=O)OC(CCCC)CCCC [Compound I-16, 5-((8-(didecylamino)-8-oxooctyl)(5-hydroxypentyl)amino)pentyl nonan-5-yl carbonate]	18.5 ± 2.7 µg/mL	75.4 ± 53.7 µg/mL
CCCCCCCCCCN(CCCCCCCCCC)C(=O)CCCCCCCN(CCCCCO)CCCCCCCCCOC(=O)OC(CCCCCC)CCCCCC [Compound I-17, 9-((8-(didecylamino)-8-oxooctyl)(5-hydroxypentyl)amino)nonyl tridecan-7-yl carbonate]	20.1 ± 6.7 µg/mL	
CCCCCCCCCCN(CCCCCCCCCC)C(=O)CCCCCCCN(CCCCCO)CCCCCCCOC(=O)OC(CCCCCCCC)CCCCCCCC [Compound I-18, 7-((8-(didecylamino)-8-oxooctyl)(5-hydroxypentyl)amino)heptyl heptadecan-9-yl carbonate]	51.5 ± 9.5 µg/mL	290.2 ± 50.5 µg/mL
CCCCCCCCCCN(CCCCCCCCCC)C(=O)CCCCCCCN(CCCCCO)CCCCCCCCOC(=O)OCC(CCCCCC)CCCCCCCC (stereo not shown) [Compound I-19, 8-((8-(didecylamino)-8-oxooctyl)(5-hydroxypentyl)amino)octyl (2-hexyldecyl) carbonate]	25.1 ± 4.2 µg/mL	184.5 ± 40.2 µg/mL
CCCCCCCCC(CCCCCCCC)OC(=O)OCCCCCCCN(CCCCCO)CCCCCCCCCC(=O)N(CCCCCCCC)CCCCCCCC [Compound I-20, 7-((10-(dioctylamino)-10-oxodecyl)(5-hydroxypentyl)amino)heptyl heptadecan-9-yl carbonate]	51.4 ± 12.8 µg/mL	
CCCCCCCCCCCCN(CCCCCCCCCCCC)C(=O)CCCCCN(CCCCCO)CCCCCCCOC(=O)OC(CCCCCCCC)CCCCCCCC [Compound I-21, 7-((6-(didodecylamino)-6-oxohexyl)(5-hydroxypentyl)amino)heptyl heptadecan-9-yl carbonate]	9.7 ± 3.3 µg/mL	
CCCCCCCCCCCCN(CCCCCCCCCCCC)C(=O)CCCCCCCN(CCCCCO)CCCCCCCOC(=O)OC(CCCCCCCC)CCCCCCCC [Compound I-22, 7-((8-(didodecylamino)-8-oxooctyl)(5-hydroxypentyl)amino)heptyl heptadecan-9-yl carbonate]	22.8 ± 11.0 µg/mL	
CCCCCCCCC(CCCCCCCC)OC(=O)OCCCCCCCN(CCCCCO)CCCCCCCC(=O)N(CCCCCCCC)CCCCCCCC [Compound I-23, 7-((8-(dioctylamino)-8-oxooctyl)(5-hydroxypentyl)amino)heptyl heptadecan-9-yl carbonate]	34.8 ± 12.3 µg/mL	
CCCCCCCCCCN(CCCCCCCCCC)C(=O)CCCCCCCCC(CCCCCCCCC(=O)OCC(CCCC)CCCCCC)N(CCCCCCCC)C(=O)CCCN1CCCC1 (stereo not shown) [Compound I-24, 2-butyloctyl 19-(didecylamino)-10-(n-octyl-4-(pyrrolidin-1-yl)butanamido)-19-oxononadecanoate]	25.1 ± 7.7 µg/mL	
CCCCCCCCCCN(CCCCCCCCCC)C(=O)CCCCCCCCC(CCCCCCCCC(=O)OCC(CCCC)CCCCCC)N(CCCCCCCCCC)C(=O)CCCN(C)C (stereo not shown) [Compound I-25, 2-butyloctyl 10-(n-decyl-4-(dimethylamino)butanamido)-19-(didecylamino)-19-oxononadecanoate]	9.3 ± 1.7 µg/mL	68.3 ± 13.4 µg/mL
